From ChEMBL document CHEMBL4406807, “Discovery of 3,4,6-Trisubstituted Piperidine Derivatives as Orally Active, Low hERG Blocking Akt Inhibitors via Conformational Restriction and Structure-Based Design” (J Med Chem, 2019)

Tests used:
[1] = tested on: OVCAR-8; assay: Antiproliferative activity against human OVCAR8 cells; format: functional, cell-based
[2] = biological target: RAC-alpha serine/threonine-protein kinase (Homo sapiens, UniProt P31749)
Description: Inhibition of human Akt1 expressed in Escherichia coli using STK Substrate 2-biotin as substrate incubated for 1 hr by HTRF assay

[3] = tested on: HCT-116; assay: cells; conditions: Homo sapiens, HCT-116, 72 h
[4] = tested on: LNCaP; assay: Antiproliferative activity against human LNCAP cells; format: functional, cell-based
[5] = biological target: hERG (KCNH2) (Homo sapiens, UniProt Q12809); assay: Inhibition of ERG in human HEK293 cells at 3 uM at -80 mV holding potential by whole-cell patch clamp assay relative to control; format: cell-based; conditions: HEK293 cells expressing ERG
Sequence of hERG (KCNH2) (Q12809 whole entry): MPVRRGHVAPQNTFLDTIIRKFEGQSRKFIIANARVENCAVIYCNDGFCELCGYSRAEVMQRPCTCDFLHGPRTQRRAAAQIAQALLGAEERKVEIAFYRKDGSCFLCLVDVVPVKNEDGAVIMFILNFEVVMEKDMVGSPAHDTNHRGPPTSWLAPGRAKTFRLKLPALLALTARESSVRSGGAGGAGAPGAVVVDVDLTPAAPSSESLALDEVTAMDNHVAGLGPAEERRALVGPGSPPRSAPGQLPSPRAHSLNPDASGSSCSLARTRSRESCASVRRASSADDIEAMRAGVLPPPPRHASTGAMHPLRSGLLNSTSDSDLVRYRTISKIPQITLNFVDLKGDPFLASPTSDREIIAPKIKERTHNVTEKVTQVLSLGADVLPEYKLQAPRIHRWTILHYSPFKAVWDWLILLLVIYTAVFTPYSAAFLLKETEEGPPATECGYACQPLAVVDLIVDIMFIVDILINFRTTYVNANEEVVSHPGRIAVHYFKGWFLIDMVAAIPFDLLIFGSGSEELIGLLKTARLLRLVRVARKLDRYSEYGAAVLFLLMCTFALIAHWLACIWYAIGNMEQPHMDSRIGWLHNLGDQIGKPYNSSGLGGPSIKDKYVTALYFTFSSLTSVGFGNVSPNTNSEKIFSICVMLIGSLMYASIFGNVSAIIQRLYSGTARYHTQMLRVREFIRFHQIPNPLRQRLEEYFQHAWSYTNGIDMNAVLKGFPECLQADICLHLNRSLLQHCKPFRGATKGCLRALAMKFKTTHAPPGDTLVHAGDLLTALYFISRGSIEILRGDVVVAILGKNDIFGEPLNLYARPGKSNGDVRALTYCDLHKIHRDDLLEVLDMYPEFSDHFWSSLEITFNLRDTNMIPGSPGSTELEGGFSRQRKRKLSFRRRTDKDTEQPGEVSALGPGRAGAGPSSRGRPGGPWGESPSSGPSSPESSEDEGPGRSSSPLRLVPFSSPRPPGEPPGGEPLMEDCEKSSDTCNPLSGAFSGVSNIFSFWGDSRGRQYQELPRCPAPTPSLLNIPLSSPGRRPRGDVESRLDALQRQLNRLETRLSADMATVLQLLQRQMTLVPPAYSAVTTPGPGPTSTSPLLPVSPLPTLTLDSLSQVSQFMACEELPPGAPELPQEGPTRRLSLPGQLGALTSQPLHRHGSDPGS

Sequence of RAC-alpha serine/threonine-protein kinase (P31749 whole entry): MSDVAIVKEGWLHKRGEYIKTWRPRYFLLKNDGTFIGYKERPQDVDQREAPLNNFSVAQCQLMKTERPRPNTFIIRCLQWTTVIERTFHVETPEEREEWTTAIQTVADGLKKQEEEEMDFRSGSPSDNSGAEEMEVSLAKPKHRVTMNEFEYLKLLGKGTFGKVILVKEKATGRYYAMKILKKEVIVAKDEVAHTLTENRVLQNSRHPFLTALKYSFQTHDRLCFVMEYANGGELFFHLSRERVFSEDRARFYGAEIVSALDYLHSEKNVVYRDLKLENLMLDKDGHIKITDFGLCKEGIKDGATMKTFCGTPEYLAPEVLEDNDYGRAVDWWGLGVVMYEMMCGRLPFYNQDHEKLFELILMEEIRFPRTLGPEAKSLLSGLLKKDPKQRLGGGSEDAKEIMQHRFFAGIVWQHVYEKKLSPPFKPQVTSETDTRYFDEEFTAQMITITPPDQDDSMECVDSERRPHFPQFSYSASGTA

Compound | IC50 [1] [µM] | IC50 [2] [µM] | IC50 [3] [µM] | IC50 [4] [µM] | inhibition at 3 µM [5] [%]
Cn1ncc(Br)c1-c1coc(C(=O)NC2CNCC2c2ccc(F)c(F)c2)c1 (racemic) |  | 3.65 |  |  | 
Cn1cc(-c2coc(C(=O)N[C@@H]3CNCC[C@H]3c3ccc(Cl)cc3)c2)cn1 | 10 | > 1 | 23.7 |  | 
Cn1ncc(Cl)c1-c1coc(C(=O)NC2CNCC2c2ccc(F)c(F)c2)c1 (racemic) |  | 1.57 |  |  | 
Cn1ncc(Cl)c1-c1cc(C(=O)N[C@@H]2CNCC[C@H]2c2ccc(F)c(F)c2)sc1Cl | 3.51 | 0.222 | 2.81 |  | 
Cn1ncc(Br)c1-c1cc(C(=O)N[C@@H]2CNCC[C@H]2c2ccc(Cl)cc2)n(C)c1Br | 4.92 | 0.199 | 7.42 |  | 
Cn1ncc(Cl)c1-c1ccc(C(=O)N[C@@H]2CNCC[C@H]2c2ccc(F)c(F)c2)cn1 | 6.12 | 0.215 | 34.7 |  | 
Cn1ncc(Br)c1-c1ccc(C(=O)N[C@@H]2CNCC[C@H]2c2ccc(F)c(F)c2)cn1 | 6.15 | 0.27 | 26.9 |  | 
Cn1nccc1-c1coc(C(=O)NC2CNCCC2c2ccccc2)c1 (stereo not drawn) |  | 0.71 |  |  | 
NC1(C(=O)N[C@@H](CCO)c2ccc(Cl)cc2)CCN(c2nc[nH]c3nccc2-3)CC1 [CAPIVASERTIB] |  |  | 5.2 | 0.178 | 
O=C(N[C@@H]1CNCC[C@H]1c1ccc(Cl)cc1)c1ccc(-c2ncnc3c2CCC3O)s1 (stereo partly drawn) | 24.1 | > 1 | 23 |  | 
Cn1cc(-c2c(Cl)cnn2C)cc1C(=O)N[C@@H]1CNCC[C@H]1c1ccc(Cl)cc1 | 6.2 | 0.212 | 3.04 |  | 
Cn1nccc1-c1ccc(C(=O)N[C@@H]2CNCC[C@H]2c2ccc(Cl)cc2)o1 | 6.09 | 0.23 | 9.56 |  | 
Cn1cc(-c2c(Br)cnn2C)cc1C(=O)N[C@@H]1CNCC[C@H]1c1ccc(Cl)cc1 | 3.03 | 0.255 | 8.7 |  | 63.8

Continued by falling IC50 [2], values first:

IC50 [1] [µM] | IC50 [2] [µM] | IC50 [3] [µM] | IC50 [4] [µM] | Compound | inhibition at 3 µM [5] [%]
1.92 | 0.182 | 6.25 |  | Cn1ncc(Br)c1-c1ccc(C(=O)N[C@@H]2CNCC[C@H]2c2cccc(F)c2)nc1 | 
0.9 | 0.127 | 1.05 |  | Cn1ncc(Cl)c1-c1cc(C(=O)N[C@H]2CNCC[C@@H]2c2ccc(C(F)(F)F)cc2)oc1Cl | 
3.46 | 0.104 | 4.72 |  | Cn1ncc(Cl)c1-c1ccc(C(=O)N[C@@H]2CNCC[C@H]2c2cccc(F)c2)nc1 | 
8.99 | 0.102 | 9.43 |  | Cn1ncc(Cl)c1-c1cc(C(=O)N[C@@H]2CNCC[C@H]2c2cccc(F)c2)sc1Cl | 
7.4 | 0.0766 | 5.63 |  | Cn1nccc1-c1ccc(C(=O)N[C@@H]2CNCC[C@H]2c2cccc(F)c2)nc1 | 
2.11 | 0.0577 | 24.2 |  | Cn1nccc1-c1ccc(C(=O)N[C@@H]2CNCC[C@H]2c2ccc(F)c(F)c2)cn1 | 
9.01 | 0.0356 | 2.31 |  | Cn1ncc(Br)c1-c1coc(C(=O)N[C@@H]2CNCC[C@H]2c2ccc(Cl)cc2)c1 | 
4.54 | 0.0298 | 10.8 |  | Cn1ncc(Br)c1-c1oc(C(=O)N[C@@H]2CNCC[C@H]2c2ccc(Cl)cc2)cc1Br | 
3.5 | 0.0294 | 1.56 |  | Cn1nccc1-c1coc(C(=O)N[C@@H]2CNCC[C@H]2c2ccc(Cl)cc2)c1 | 
2.18 | 0.0273 | 9.88 |  | Cn1ncc(Cl)c1-c1ccc(C(=O)N[C@@H]2CNCC[C@H]2c2ccc(F)c(F)c2)cc1 | 
4.28 | 0.0137 | 2.56 |  | Cn1ncc(Cl)c1-c1ccc(C(=O)N[C@@H]2CNCC[C@H]2c2ccc(Cl)cc2)o1 | 
0.12 | 0.0093 | 0.28 |  | Cn1ncc(Cl)c1-c1cc(C(=O)N[C@@H]2CNCC[C@H]2c2ccc(C(F)(F)F)cc2)oc1Cl | 
0.12 | 0.008 | 0.39 |  | Cn1ncc(Cl)c1-c1cc(C(=O)N[C@@H]2CNCC[C@H]2c2cccc(C(F)(F)F)c2)oc1Cl | 
 | 0.0072 |  |  | Cn1ncc(Cl)c1-c1cc(C(=O)NC2CNCCC2c2ccc(C(F)(F)F)cc2)oc1Cl (stereo not drawn) | 
1.4 | 0.0051 | 0.99 |  | Cn1ncc(Cl)c1-c1coc(C(=O)N[C@@H]2CNCC[C@H]2c2ccc(F)c(F)c2)c1 | 
4.96 | 0.0034 | 0.69 |  | CC(=O)OCC[C@@H]1C[C@@H](c2ccc(F)c(F)c2)[C@H](NC(=O)c2cc(-c3c(Cl)cnn3C)c(Cl)o2)CN1 | 
5.9 | 0.00313 | 7.09 | 0.66 | Cn1ncc(Cl)c1-c1cc(C(=O)N[C@@H]2CN[C@H](CC(=O)NCC(O)CO)C[C@H]2c2ccc(Cl)c(Cl)c2)oc1Cl (stereo partly drawn) | 
